One assay has as its target human KHK-C (Homo sapiens (Human), UniProt P50053). Briefly: KHK Biochemical Assay (IC50), ADP-Glo, KHK-C. Conditions: average of at least two separate assays. Put shortly: (§1)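 Luminescent ADP-Glo read-out of ADP made by His-tagged KHK (BL21 (DE3) expression, Ni-NTA). Enzyme and compound sat together 30 min before ATP/fructose addition, then reacted 4 h at RT in Hepes pH 7.4 buffer with KCl, MgCl2, Triton-X. Quench 1 h, detection 1 h.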

In the next assay the target is human OATP1B1 (Homo sapiens (Human), UniProt Q9Y6L6). Kind of assay: In Vitro Inhibition Assessment with Human OATP1B1 Transporter. In kind it is in vitro ADME. Conditions: HEK293-OATP1B1 cells, probe substrate pravastatin. The protocol: In Vitro Inhibition Assessment with Human OATP1B1 and OATP1B3 Transporters Assay Protocol
The purpose of this assay was to assess the inhibition potential of test article (TA) toward human OATP1B1 and OATP1B3 transporters in vitro using cell lines transfected with the individual transporters. The assays used clinically relevant probe substrate pravastatin and a known positive control inhibitor rifampicin. HEK293 mock, HEK293-OATP1B1, and HEK293-OATP1B3 transfected cells were seeded onto CellCoat Poly-D-Lysine coated 96 well black cell culture plates with clear bottoms (Greiner bio-one, Cat. #655946) at a density of 70,000 cells/well and cultured to confluency overnight. Seeding media used was Dulbecco's Modification of Eagle's Medium (DMEM—with GlutaMAX high glucose; Gibco, Cat #: 10569-010) supplemented with 10% fetal bovine serum, 0.1 mM non-essential amino acids, 100 U/mL penicillin, and 100 μg/mL streptomycin. On assay day, media were removed from the assay plates and cells were washed with Hanks' Balanced Salt Solution (HBSS Buffer) (Corning, Cat. #21-023-CV). All TAs and reference inhibitor were serially diluted in DMSO to create spiking solutions at concentrations of 250-fold of final assay concentrations (final DMSO content 0.4%). Cells were preincubated with HBSS buffer containing test compounds for 15 minutes. After the removal of HBSS buffer, dose solution containing TA or reference inhibitor and probe substrate were added to the HEK293-OATP1B1, HEK-293-OATP1B3 and its associated mock cell plate, respectively. The co-incubation period of TAs with the corresponding probe substrate for all plates was 5 minutes. An aliquot of the dose solution was removed from the HEK293 mock cell plates and analysed for dose recovery. Cells were then washed three times with ice cold HBSS buffer and then immediately extracted with methanol:water (70:30 v:v) containing internal standard labetolol (30 nM). The supernatants were evaporated to dryness on injection plates and reconstituted in 80% water containing 20% acetonitrile and 0.1% formic acid for analysis by liquid chromatography with tandem mass spectrometry (LC-MS-MS).
Fractional transport activities were calculated from the equation: Activity %=(A−B)/(C−D)×100
• A: translocated amount of substrate in the presence of TA on transfected cells • B: translocated amount of substrate in the presence of TA on Mock cells • C: translocated amount of substrate in the presence of solvent on transfected cells • D: translocated amount of substrate in the presence of solvent on Mock cells
GraphPad Prism 7.0 (GraphPad Software Inc., San Diego, CA) was used for curve fitting and determination of reaction parameters. In uptake transporter inhibition assays, the IC50 (μM) was calculated, where applicable. IC50 was defined as the concentration of TA required to inhibit maximal activity by 50%.

Assay [1] deals with KHK-C expressed in NRK-52E cells (Homo sapiens (Human), UniProt P50053). Kind of assay: KHK-C Cell-based Assay (EC50), NRK CTG, fructose-mediated ATP-depletion.
The target in another assay is human KHK-A (Homo sapiens (Human), UniProt P50053). Briefly: KHK Biochemical Assay (IC50), ADP-Glo, KHK-A. The settings on record: average of at least two separate assays. Summed up: as §1
(In general: In ADP-Glo the light output rises with the ADP produced.)

The subject of the next assay is HepG2 cells. Kind of assay: F1P Cell-Based Assay (EC50), 13C6-fructose-1-phosphate in HepG2 cells (cell culture medium or 50% human plasma).
Where [2] appears, read: Homo sapiens, HepG2, HepG2 cells, 50% human plasma, read-out: F1P 50% HP EC50.
The mark [3] stands for this setting: Homo sapiens, HepG2, read-out: F1P 10% FBS EC50, HepG2 cells, cell culture medium (10% FBS).

Usually IC50 stands for the concentration needed to halve the response being measured. A higher IC50 goes with weaker potency in that assay. Broadly, the EC50 is the concentration giving half of the maximal effect.

Like-named read-outs stand apart in the source and are kept apart here.

Chain of human KHK-A (P50053 other isoform, or with tags, fused parts or gaps): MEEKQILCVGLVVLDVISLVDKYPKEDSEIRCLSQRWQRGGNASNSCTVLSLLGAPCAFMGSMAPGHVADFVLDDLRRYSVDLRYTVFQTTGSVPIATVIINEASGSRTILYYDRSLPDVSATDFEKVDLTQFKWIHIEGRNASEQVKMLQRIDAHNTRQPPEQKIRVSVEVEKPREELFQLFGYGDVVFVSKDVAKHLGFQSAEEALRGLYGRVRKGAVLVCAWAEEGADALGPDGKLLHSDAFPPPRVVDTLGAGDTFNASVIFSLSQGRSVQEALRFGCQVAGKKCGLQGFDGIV
Chain of KHK-C expressed in NRK-52E cells (P50053 whole entry): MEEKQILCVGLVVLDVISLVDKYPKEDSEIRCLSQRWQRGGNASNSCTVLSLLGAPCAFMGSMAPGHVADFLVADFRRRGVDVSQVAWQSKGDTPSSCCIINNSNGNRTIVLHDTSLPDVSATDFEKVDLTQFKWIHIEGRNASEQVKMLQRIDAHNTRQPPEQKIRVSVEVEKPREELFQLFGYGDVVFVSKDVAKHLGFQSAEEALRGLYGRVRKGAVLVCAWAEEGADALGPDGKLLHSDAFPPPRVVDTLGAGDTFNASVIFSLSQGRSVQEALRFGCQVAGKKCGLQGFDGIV
Chain of human KHK-C (P50053 whole entry): as above
Chain of human OATP1B1 (Q9Y6L6 whole entry): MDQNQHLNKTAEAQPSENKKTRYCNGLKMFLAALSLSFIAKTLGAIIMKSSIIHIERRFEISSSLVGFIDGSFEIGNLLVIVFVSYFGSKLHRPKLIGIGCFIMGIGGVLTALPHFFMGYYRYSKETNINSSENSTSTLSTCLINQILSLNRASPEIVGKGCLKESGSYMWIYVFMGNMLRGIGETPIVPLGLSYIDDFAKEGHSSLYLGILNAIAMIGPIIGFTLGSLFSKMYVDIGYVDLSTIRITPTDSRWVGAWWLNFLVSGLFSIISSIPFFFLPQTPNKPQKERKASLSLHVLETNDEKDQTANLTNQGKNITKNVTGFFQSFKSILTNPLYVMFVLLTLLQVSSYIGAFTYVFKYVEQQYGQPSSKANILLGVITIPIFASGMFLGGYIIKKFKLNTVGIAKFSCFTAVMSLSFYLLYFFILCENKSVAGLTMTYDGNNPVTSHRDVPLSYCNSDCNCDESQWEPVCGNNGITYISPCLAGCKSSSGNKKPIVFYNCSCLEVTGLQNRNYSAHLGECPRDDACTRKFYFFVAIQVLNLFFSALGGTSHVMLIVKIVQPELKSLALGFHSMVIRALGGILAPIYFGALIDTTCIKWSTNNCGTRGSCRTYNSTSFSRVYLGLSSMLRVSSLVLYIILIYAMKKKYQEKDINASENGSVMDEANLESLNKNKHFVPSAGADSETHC

Consider `C[C@H]1CCN1c1nc2c(c(-c3ccc4c(=O)[nH]ncc4c3)n1)CCC2` [Example 427, 6-[2-[(2S)-2-methylazetidin-1-yl]-6,7-dihydro-5H-cyclopenta[d]pyrimidin-4-yl]-2H-phthalazin-1-one], for which the IC50 against human KHK-C was found to be 30.2 nM; at human OATP1B1, 210 nM; on human KHK-A, 17.8 nM. In addition, the EC50 in assay [1] turned out to be 40.2 nM.

`C[C@H]1[C@H](O)CN1c1nc(-c2cnc3c(c2)OCCNC3=O)c2c(n1)C(F)(F)CC2` [Example 599]: the values for the IC50 on human KHK-C and against human OATP1B1 were 20.3 nM and 4380 nM, respectively. Also, the EC50 in assay [1] amounted to 4900 nM.

Take `C[C@H]1[C@H](O)CN1c1nc(-c2ccc3c(c2)S(=N)(=O)CCNC3)c2c(n1)C(F)(F)CC2` (stereo partly drawn) [Example 725]: the IC50 against human KHK-C was 0.9 nM; on human OATP1B1, over 40000 nM; on human KHK-A, 2.2 nM. For the same compound, the EC50 worked out at 37.7 nM with HepG2 cells (Homo sapiens, HepG2, read-out: F1P 10% FBS EC50) and 23.5 nM with HepG2 cells (Homo sapiens, HepG2, read-out: F1P 50% HP EC50).

Regarding `C[C@H]1[C@H](O)CN1c1nc(-c2ccc3c(c2)CC[C@@H]3NS(C)(=O)=O)c2c(n1)C(F)(F)CC2` [Example 472, N—((S)-5-(7,7-difluoro-2-((2S,3R)-3-hydroxy-2-methylazetidin-1-yl)-6,7-dihydro-5H-cyclopenta[d]pyrimidin-4-yl)-2,3-dihydro-1H-inden-1-yl)methanesulfonamide], the results for the IC50 at human KHK-C, at human OATP1B1 and at human KHK-A were 0.9 nM, 6220 nM and 12.7 nM, respectively. In addition, the EC50 with HepG2 cells (setting [2]) is 39.4 nM; in the assay with HepG2 cells (setting [3]) it was 13.3 nM.

Turning to `C[C@H]1[C@H](O)CN1c1nc2c(c(-c3ccc4c(=O)[nH]ccc4c3)n1)CCC2` [Example 373, 6-[2-[(2S,3R)-3-hydroxy-2-methyl-azetidin-1-yl]-6,7-dihydro-5H-cyclopenta[d]pyrimidin-4-yl]-2H-isoquinolin-1-one], the IC50 on human KHK-C (ADP-Glo) amounted to 20.4 nM; against human OATP1B1, 379 nM; at human KHK-A (ADP-Glo), 54 nM. The compound also gave an EC50 in assay [1] of 53.8 nM.

With `C[C@H]1[C@H](O)CN1c1nc(-c2cc3cc[nH]c(=O)c3s2)c2c(n1)C(F)(F)CC2` [Example 643, 2-[7,7-difluoro-2-[(2S,3R)-3-hydroxy-2-methyl-azetidin-1-yl]-5,6-dihydrocyclopenta[d]pyrimidin-4-yl]-6H-thieno[2,3-c]pyridin-7-one], the IC50 against human KHK-C amounted to 2.6 nM; at human OATP1B1, 798 nM. In assay [1], this compound showed an EC50 of 70.8 nM.

In the case of `C[C@H]1[C@H](O)CN1c1nc(-c2cc3c(c(C(N)=O)c2)CCO3)c2c(n1)C(F)(F)CC2` [Example 756, 6-[7,7-difluoro-2-[(2S,3R)-3-hydroxy-2-methyl-azetidin-1-yl]-5,6-dihydrocyclopenta[d]pyrimidin-4-yl]-2,3-dihydrobenzofuran-4-carboxamide], the IC50 was 7 nM against human KHK-C and 1750 nM on human OATP1B1. Besides, the EC50 in assay [1] amounted to 52.2 nM.

As for `C[C@H]1CCN1c1nc2c(c(-c3cc(F)c4c(=O)[nH]ccc4c3)n1)CCC2` [Example 382, 8-fluoro-6-[2-[(2S)-2-methylazetidin-1-yl]-6,7-dihydro-5H-cyclopenta[d]pyrimidin-4-yl]-2H-isoquinolin-1-one], the IC50 at human KHK-C (ADP-Glo) amounted to 6.3 nM; against human OATP1B1, 149 nM; against human KHK-A (ADP-Glo), 16.1 nM. The EC50 in assay [1] amounted to 13.8 nM.

Take `COc1cc(-c2nc(N3C[C@@H](O)[C@@H]3C)nc3c2CCC3(F)F)cc2c1[C@@H](NS(C)(=O)=O)CO2` (single isomer, unassigned) [Example 479]: the IC50 against human KHK-C is 0.7 nM; at human OATP1B1, 994 nM; at human KHK-A it was 7.3 nM. In addition, the EC50 worked out at 28.3 nM with HepG2 cells (HepG2 cells, 50% human plasma, read-out: F1P 50% HP EC50) and 11 nM with HepG2 cells (read-out: F1P 10% FBS EC50, HepG2 cells, cell culture medium (10% FBS)).

For `C[C@H]1[C@H](O)CN1c1nc(-c2ccc3c(c2)S(=O)(=O)NC3)c2c(n1)C(F)(F)CC2` [Example 598], the IC50 amounted to 2.4 nM on human KHK-C and 3140 nM at human OATP1B1. Moreover, in assay [1], the EC50 is 15.7 nM.

As to `C[C@H]1[C@H](O)CN1c1nc2c(c(-c3cc4cc[nH]c(=O)c4s3)n1)CCC2` [Example 450, 2-[2-[(2S,3R)-3-hydroxy-2-methyl-azetidin-1-yl]-6,7-dihydro-5H-cyclopenta[d]pyrimidin-4-yl]-6H-thieno[2,3-c]pyridin-7-one], the IC50 was 9.3 nM on human KHK-C and 992 nM against human OATP1B1. Moreover, in assay [1], the EC50 was 298 nM.

On to `C[C@H]1[C@H](O)CN1c1nc(-c2ccc(C3(O)CS(=O)(=O)C3)cc2)c2c(n1)C(F)(F)CC2` [Example 735], for which the IC50 at human KHK-C stood at 6.5 nM; against human OATP1B1 it was 2870 nM. For the same compound, the EC50 in assay [1] stood at 52.1 nM.

`C[C@H]1CCN1c1nc2c(c(-c3cc4c(N)nccc4s3)n1)CCC2` [Example 446, 2-[2-[(2S)-2-methylazetidin-1-yl]-6,7-dihydro-5H-cyclopenta[d]pyrimidin-4-yl]thieno[3,2-c]pyridin-4-amine]: the IC50 on human KHK-C was 3.4 nM; at human OATP1B1 it was 1810 nM. The same compound yielded an EC50 in assay [1] of 5 nM.

Consider `C[C@H]1[C@H](O)CN1c1nc(-c2ccc(C(N)=O)c(OC(F)F)c2)c2c(n1)C(F)(F)CC2` [Example 182, 4-(7,7-difluoro-2-((2S,3R)-3-hydroxy-2-methylazetidin-1-yl)-6,7-dihydro-5H-cyclopenta[d]pyrimidin-4-yl)-2-(difluoromethoxy)benzamide], for which the half-maximal inhibitory concentration (IC50) stood at 10.2 nM on human KHK-C (ADP-Glo) and 2840 nM against human OATP1B1. This compound also came in with an EC50 in assay [1] of 156 nM.

As for `C[C@H]1[C@H](O)CN1c1nc(-c2ccc3c(c2)C(=O)N(C)C3)c2c(n1)C(F)(F)CC2` [Example 236, 6-(7,7-difluoro-2-((2S,3R)-3-hydroxy-2-methylazetidin-1-yl)-6,7-dihydro-5H-cyclopenta[d]pyrimidin-4-yl)-2-methylisoindolin-1-one], the IC50 on human OATP1B1 stood at 1390 nM. This compound also gave an EC50 in assay [1] of 31.3 nM.

In the case of `C[C@H]1[C@H](O)CN1c1nc(-c2ccc(S(C)(=N)=O)cc2)c2c(n1)C(F)(F)CC2` (stereo partly drawn) [Example 715, (4-(7,7-difluoro-2-((2S,3R)-3-hydroxy-2-methylazetidin-1-yl)-6,7-dihydro-5H-cyclopenta[d]pyrimidin-4-yl)phenyl)(imino)(methyl)-λ^6-sulfanone], the IC50 at human KHK-C was found to be 35.2 nM; on human OATP1B1, 30500 nM. In assay [1], this compound returned an EC50 of 258 nM.

As to `C[C@H]1[C@H](O)CN1c1nc(-c2ccc([C@]3(N)CCOC3)cc2)c2c(n1)C(F)(F)CC2` (single isomer, unassigned) [Example 518], the IC50 against human KHK-C turned out to be 1.1 nM; against human OATP1B1, 27100 nM; against human KHK-A it was 2.3 nM. Besides, the EC50 in the assay with HepG2 cells (setting [2]) was 3 nM; with HepG2 cells (setting [3]), 3.7 nM.

Take `C[C@H]1[C@H](O)CN1c1nc(-c2ccc3c(c2)COC[C@@H]3NS(C)(=O)=O)c2c(n1)C(F)(F)CC2` [Example 487, N—((R)-7-(7,7-difluoro-2-((2S,3R)-3-hydroxy-2-methylazetidin-1-yl)-6,7-dihydro-5H-cyclopenta[d]pyrimidin-4-yl)isochroman-4-yl)methanesulfonamide]: the figures for the IC50 against human KHK-C, at human OATP1B1 and against human KHK-A were 1.6 nM, 9770 nM and 14 nM, respectively. Further, the results for the half-maximal effective concentration (EC50) in the assay on HepG2 cells (setting [2]) and in the assay on HepG2 cells (setting [3]) were 72.4 nM and 11.9 nM, respectively.

Source of the values: patent publication US12410160B2 (Gilead Sciences, Inc., priority 2021, dated 2025).
